This is an account of results in US9714247B2, “Multiple kinase pathway inhibitors” (Mannkind Corporation, priority 2012, dated 2017).

Where two headings read alike, the source gives them in different places.

Assay [1] concerns DoHH2. Nature of the assay: CellTiter-Glo proliferation/viability assay. It is filed as cell-based, human. A general note: Cellular ATP, detected with luciferase, serves as a proxy for viable cell number.
Assay [2] has as its target T1, Lyn (Homo sapiens (Human), UniProt P07948). Put plainly: biochemical.
In assay [3] the target is T2, Src (Homo sapiens (Human), UniProt P12931). Particulars: read-out: Src IC50.
The test system of assay [4] is Ramos. Nature of the assay: CellTiter-Glo proliferation/viability assay. It is filed as cell-based, human. Particulars: read-out: Ramos EC50.
Assay [5] concerns RBL-2H3 cells. Nature of the assay: Degranulation (β-hexosaminidase release) colorimetric assay. It is filed as cell-based. Particulars: Rattus norvegicus, RBL-2H3, IgE / DNP-BSA. An excerpt: Crosslinking of IgE receptors leads to induction of intracellular signal transduction pathways and degranulation of mast cells and basophils leading to the release of histamine, serotonin and cytokines that constitutes an allergic reaction. […] One of the factors secreted on induction of degranulation is β-hexosaminidase. A colorimetric assay using 4-nitrophenyl N-acetyl-3-D-glucosaminide (Sigma-Aldrich) as a substrate was used to estimate the amount of enzyme secreted upon degranulation. In brief, RBL-2H3 (ATCC # CRL 2256) cells were plated overnight in the presence of IgE (monoclonal anti-dinitrophenyl antibody from Sigma-Aldrich). The next day, cells were treated with compounds in cell culture media, washed and treated with DNP-BSA for 1 hour (Sigma-Aldrich) in Tyrodes's buffer to induce degranulation. The level of 3-hexosaminidase was analyzed in cell-free supernates and cell lysates and the amount of β-hexosaminidase released was calculated. EC50 values were generated using varying concentrations of inhibitors. […] Thus amino naphthyridinones can be used to inhibit immunologic functions such as degranulation.

Assay [6] deals with BTK (Homo sapiens (Human), UniProt Q06187).
The test system of assay [7] is DoHH2 cells. The conditions noted are these: treated 24 hours.
Assay [8] concerns phosphorylation of SFKs in Ramos cells. Nature of the assay: SFK phosphorylation (Tyr 416) by flow cytometry. The class given is cell-based, human. Particulars: Homo sapiens, 0.3 uM, flow cytometry, SFK phosphorylated at Tyr 416, read-out: pSRC % inhibition. The procedure: Ramos cell lysates from stimulated and unstimulated cells were analyzed for the levels of phosphorylated SRC family members. As described in Example 82 (above), cells were pretreated for 2 hours with an amino naphthyridinones and then stimulated with anti-IgM antibody and H2O2, protein lysates were prepared, quantified and used for Western blotting. A commercially available antibody that detects Src phosphorylated at Tyr 416 (Cell Signalling) and may cross-react with other Src family members such as Lyn, Fyn, Lck, Yes and Hck when phosphorylated at equivalent sites was used for Western blot analysis. The molecular weights of SFK family members are quite similar (in the 55-60 kDa range) and different family members cannot be resolved by the conditions used for the Western blot. […] The procedure can be similarly adapted for flow cytometric analysis as with the PLC-γ2 assay in Example 82. Ramos cells were incubated with Compound 1 for 2 hrs in RPMI media with 5% FBS prior to stimulation stimulated with H2O2/anti-IgM/F(Ab) for 10 minutes. Cells were evaluated by FACS analysis using anti-pSRC antibody and FITC-conjugated goat anti-rabbit secondary antibody following overnight storage at 4° C. in BD perm/wash buffer.
Ramos cells were prepared for flow cytometry analysis as described in example 82, and stained with a commercially available antibody that detects SFK phosphorylated at Tyr 416, followed by Alexa Fluor 488 conjugated secondary antibody. […] Thus amino naphthyridinones are useful in the inhibition of the phosphorylation of SFKs.

For assay [9], the system named is PLCγ2 phosphorylation in Ramos cells. Put plainly: PLCγ2 phosphorylation by flow cytometry. The conditions noted are these: Homo sapiens, flow cytometry; for inhibition at 0.3 µM: anti-phospho PLCγ2 (Tyr759), read-out: pPLCγ % inhibition; for EC50: anti-phospho PLCγ2 (Tyr1217), four concentrations, read-out: Inhibition of phosphorylation of PLC-γ2 EC50. It is filed as cell-based, human. The method in brief:
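Ramos cells starved 18 h in 1% FBS, pretreated with inhibitor 2 h, then stimulated with anti-IgM (10 ug/ml final) plus 3.3 mM H2O2 for 2 min, then cross-linking F(ab) (10 ug/ml) plus H2O2 for 8 min. Fixed, permeabilized cells stained with PE anti-phospho-PLCγ2 (Tyr1217 or Tyr759), dead cells gated out; ED50 from geometric mean fluorescence over four inhibitor concentrations.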

The test system of assay [10] is DoHH2. Nature of the assay: Apoptosis by flow cytometry (Annexin V / 7AAD). The class given is cell-based, human. The conditions noted are these: Table 6; for Percent Apoptosis at 2 uM: DOHH2, 2 uM; for Percent Apoptosis at 5 uM: DOHH2, 5 uM. The source says:
Activation of Tec family kinases including BTK, and/or Src kinase family members, regulates cell survival and cell death in normal B cells, lymphomas, and solid tumors. Apoptosis is a programmed cell death characterized by specific changes in cell morphology. […] Staurosporine was used as a positive control for apoptosis. […] Table 6 illustrates that several amino naphthyridinones induce significant apoptosis in DoHH2 cells.
Background: Flow cytometry measures light scatter and fluorescence of single cells or particles in a stream.

Assay [11] deals with T1, Lyn. The conditions noted are these: read-out: Lyn IC50.
Assay [12] addresses T2, Src. Put plainly: biochemical.
Where [13] appears, read: Homo sapiens, DOHH-2, 48 hrs, read-out: DoHH2 EC50.
Where [14] appears, read: Homo sapiens, DOHH-2, Table 4, DoHH2 cells, read-out: EC50 (Proliferation).

BTK, sequence (Q06187 whole entry): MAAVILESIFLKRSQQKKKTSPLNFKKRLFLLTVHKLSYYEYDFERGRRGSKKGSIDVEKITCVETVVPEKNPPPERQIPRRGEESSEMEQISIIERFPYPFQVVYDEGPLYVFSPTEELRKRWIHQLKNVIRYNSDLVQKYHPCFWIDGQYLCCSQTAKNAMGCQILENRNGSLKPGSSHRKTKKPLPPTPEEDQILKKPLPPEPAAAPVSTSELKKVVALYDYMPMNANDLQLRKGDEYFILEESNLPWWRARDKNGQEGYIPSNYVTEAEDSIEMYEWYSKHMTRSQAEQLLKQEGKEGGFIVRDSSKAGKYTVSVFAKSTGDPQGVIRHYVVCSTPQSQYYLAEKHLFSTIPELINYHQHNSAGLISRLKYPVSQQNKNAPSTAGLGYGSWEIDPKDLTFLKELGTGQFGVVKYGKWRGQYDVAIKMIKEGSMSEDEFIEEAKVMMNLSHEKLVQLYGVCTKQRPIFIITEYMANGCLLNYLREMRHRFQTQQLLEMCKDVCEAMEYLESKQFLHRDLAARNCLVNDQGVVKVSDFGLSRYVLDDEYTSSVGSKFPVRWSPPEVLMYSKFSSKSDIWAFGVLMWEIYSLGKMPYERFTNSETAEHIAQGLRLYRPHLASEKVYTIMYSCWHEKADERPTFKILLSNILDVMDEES
T2 sequence (P12931 whole entry, looked up): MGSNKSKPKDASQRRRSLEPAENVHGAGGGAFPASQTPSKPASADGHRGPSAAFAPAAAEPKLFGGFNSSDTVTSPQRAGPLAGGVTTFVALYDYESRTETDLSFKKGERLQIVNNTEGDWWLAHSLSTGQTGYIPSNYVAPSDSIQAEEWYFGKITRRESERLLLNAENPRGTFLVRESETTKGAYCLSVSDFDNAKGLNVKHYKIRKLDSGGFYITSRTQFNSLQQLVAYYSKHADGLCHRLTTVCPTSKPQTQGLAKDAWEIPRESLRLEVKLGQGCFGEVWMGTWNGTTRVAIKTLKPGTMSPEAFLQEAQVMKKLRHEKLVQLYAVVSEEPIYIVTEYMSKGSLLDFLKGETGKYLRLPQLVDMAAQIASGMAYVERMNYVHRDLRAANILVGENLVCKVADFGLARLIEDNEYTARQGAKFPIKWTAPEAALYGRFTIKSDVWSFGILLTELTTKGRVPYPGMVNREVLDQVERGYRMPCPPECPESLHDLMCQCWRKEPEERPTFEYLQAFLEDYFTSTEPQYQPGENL
T1 sequence (P07948 whole entry): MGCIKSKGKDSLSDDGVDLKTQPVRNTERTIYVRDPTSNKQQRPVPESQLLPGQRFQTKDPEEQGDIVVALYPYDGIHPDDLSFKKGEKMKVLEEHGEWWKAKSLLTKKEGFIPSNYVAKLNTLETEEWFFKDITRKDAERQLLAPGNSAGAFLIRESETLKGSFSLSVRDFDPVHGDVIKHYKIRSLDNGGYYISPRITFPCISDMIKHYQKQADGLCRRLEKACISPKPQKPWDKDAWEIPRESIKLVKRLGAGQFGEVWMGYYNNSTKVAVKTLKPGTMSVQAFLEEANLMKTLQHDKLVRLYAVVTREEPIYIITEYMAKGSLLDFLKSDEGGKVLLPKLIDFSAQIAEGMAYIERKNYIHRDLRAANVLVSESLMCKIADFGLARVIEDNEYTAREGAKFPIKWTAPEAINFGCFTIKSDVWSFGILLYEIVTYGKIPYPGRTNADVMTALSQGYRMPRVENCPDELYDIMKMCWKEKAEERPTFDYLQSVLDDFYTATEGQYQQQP

On to `O=c1c(-c2c(F)cccc2F)cc2cnc(Nc3ccc(F)cn3)cc2n1C1CCOC1` (single isomer, unassigned) [Compound 142, (R or S)-3-(2,6-difluorophenyl)-7-((5-fluoropyridin-2-yl)amino)-1-(tetrahydrofuran-3-yl)-1,6-naphthyridin-2(1H)-one], for which the EC50 was under 1000 nM in assay [1] (48 hrs, read-out: DoHH2 EC50); 1000 to 10000 nM in assay [4] (48 hrs); over 5000 nM in assay [5]. For the same compound, the IC50 in [2] (Lyn IC50) and in assay [3] was under 100 nM each time.

With `CCN(CC)CCOc1ccc(Nc2cc3c(cn2)cc(-c2ccccc2)c(=O)n3C2CCN(C)CC2)nc1` [Compound 16, 7-((5-(2-(diethylamino)ethoxy)pyridin-2-yl)amino)-1-(1-methylpiperidin-4-yl)-3-phenyl-1,6-naphthyridin-2(1H)-one], the IC50 was 100 to 1000 nM in assay [6]; 100 to 1000 nM in assay [6] (read-out: BTK IC50); 100 to 1000 nM in assay [2]; under 100 nM in [3]; 100 to 1000 nM in assay [11]. Besides, in [7], the “Effect on Cell Cycle” value was “G1 Arrest”. Besides, the EC50 in [1] (setting [13]) was under 1000 nM; in [1] (setting [14]), under 1000 nM; in assay [4] (Homo sapiens, Ramos, 48 hrs), 1000 to 10000 nM. Further, the inhibition at 0.3 µM in [8] was -1%; in assay [9], 46%. Besides, in assay [10], the “Percent Apoptosis at 2 uM” value was found to be 32.57%. Also, the “Percent Apoptosis at 5 uM” value in [10] was 58.99%.

With `CCN(CC)CCOc1ccc(Nc2cc3c(cn2)cc(-c2ccccc2)c(=O)n3C(C)C)nc1` [Compound 22, 7-(5-(2-(diethylamino)ethoxy)pyridin-2-ylamino)-1-isopropyl-3-phenyl-1,6-naphthyridin-2(1H)-one], the IC50 is under 100 nM in [6] (read-out: BTK IC50), 100 to 1000 nM in assay [2] (Lyn IC50) and 100 to 1000 nM in assay [12]. Further, the “Effect on Cell Cycle” value in [7] is reported as “G1 Arrest”. In addition, the EC50 in assay [1] (setting [13]) was under 1000 nM; in assay [1] (setting [14]) it was under 1000 nM; in assay [4] (Homo sapiens, Ramos, 48 h) it was 1000 to 10000 nM. The “Percent Apoptosis at 2 uM” value in assay [10] is 21.68%. Moreover, the “Percent Apoptosis at 5 uM” value in assay [10] came to 25.8%.

Turning to `CCN(CC)CCOc1ccc(Nc2cc3c(cn2)cc(-c2ccccc2)c(=O)n3C2CCC2)nc1` [Compound 25, 1-cyclobutyl-7-(5-(2-(diethylamino)ethoxy)pyridin-2-ylamino)-3-phenyl-1,6-naphthyridin-2(1H)-one], in [7], the “Effect on Cell Cycle” value was “G1 Arrest”. The EC50 in assay [1] (setting [13]) was under 1000 nM; in assay [1] (setting [14]) it was under 1000 nM; in assay [9] it was 280 nM; in [4] (Homo sapiens, Ramos, 48 h), 1000 to 10000 nM. The IC50 in [2] and in assay [12] was 1000 to 5000 nM each time. The inhibition at 0.3 µM in [8] stood at 26%; in assay [9] it was 61%. In assay [10], the “Percent Apoptosis at 2 uM” value was determined as 26.94%. Besides, the “Percent Apoptosis at 5 uM” value in assay [10] turned out to be 20.29%.

Regarding `CCN(CC)CCOc1ccc(Nc2cc3c(cn2)cc(-c2ccccc2)c(=O)n3C2CC2)nc1` [Compound 27, 1-cyclopropyl-7-(5-(2-(diethylamino)ethoxy)pyridin-2-ylamino)-3-phenyl-1,6-naphthyridin-2(1H)-one], the IC50 in assay [6] (read-out: BTK IC50) was under 100 nM; in [2], 100 to 1000 nM; in assay [12], 100 to 1000 nM. The “Effect on Cell Cycle” value in assay [7] is “G1 Arrest”. Moreover, the EC50 in assay [1] (setting [13]) was under 1000 nM; in assay [1] (setting [14]), under 1000 nM; in assay [4] (Homo sapiens, Ramos, 48 hrs), 1000 to 10000 nM. In addition, in assay [10], the “Percent Apoptosis at 2 uM” value is reported as 37.05%. For the same compound, in assay [10], the “Percent Apoptosis at 5 uM” value is recorded as 54.19%.

For the compound `CCN(CC)CCOc1ccc(Nc2cc3c(cn2)cc(C(C)C)c(=O)n3C(C)C)nc1` [Compound 34, 7-[5-(2-Diethylamino-ethoxy)-pyridin-2-ylamino]-1,3-diisopropyl-1H-[1,6]naphthyridin-2-one], the “Effect on Cell Cycle” value in assay [7] is reported as “No Arrest”. Further, in assay [3], the IC50 is under 100 nM. The EC50 in [4] (Homo sapiens, Ramos, 48 h) lay in the range of 1000 to 10000 nM. In assay [10], the “Percent Apoptosis at 2 uM” value is 19.54% and the “Percent Apoptosis at 5 uM” value is given as 46.27%. Further, in assay [11], the IC50 was under 100 nM.

For the compound `CCn1c(=O)c(-c2ccccc2)cc2cnc(Nc3ccc(N4CCN(C)CC4)cn3)cc21` [Compound 43, 1-Ethyl-7-[5-(4-methyl-piperazin-1-yl)-pyridin-2-ylamino]-3-phenyl-1H-[1,6]naphthyridin-2-one], the EC50 in assay [1] (setting [13]) is under 1000 nM; in [9], 190 nM; in [4] (Homo sapiens, Ramos, 48 hrs), 1000 to 10000 nM. Further, the IC50 in [3] and in [11] was under 100 nM each time. The “Percent Apoptosis at 2 uM” value in assay [10] is 27.26%. The “Percent Apoptosis at 5 uM” value in assay [10] is 29.38%.

Regarding `CCn1c(=O)c(-c2c(F)cccc2F)cc2cnc(Nc3ccc(F)cn3)cc21` [Compound 75, 3-(2,6-difluorophenyl)-1-ethyl-7-((5-fluoropyridin-2-yl)amino)-1,6-naphthyri-din-2 (1H)-one], the results for the IC50 in assay [6] (read-out: BTK IC50), in assay [12] and in assay [11] were under 100 nM, 100 to 1000 nM and under 100 nM, respectively. Further, the “Effect on Cell Cycle” value in assay [7] is “G1 Arrest”. Moreover, the EC50 was under 1000 nM in assay [1] (setting [13]); under 1000 nM in [1] (setting [14]); 1000 to 10000 nM in assay [4] (Homo sapiens, Ramos, 48 h). In [10], the “Percent Apoptosis at 2 uM” value is reported as 35.66%. The “Percent Apoptosis at 5 uM” value in [10] is given as 39.47%.

For `O=c1c(-c2c(F)cccc2F)cc2cnc(Nc3ccc(F)cn3)cc2n1CCN1CCOCC1` [Compound 133, 3-(2,6-difluorophenyl)-7-((5-fluoropyridin-2-yl)amino)-1-(2-morpholinoethyl)-1,6-naphthyridin-2(1H)-one], the IC50 in assay [6] (read-out: BTK IC50), in [3] and in assay [11] was under 100 nM in each case. The EC50 in [1] (setting [13]) was under 1000 nM; in assay [4] (Homo sapiens, Ramos, 48 hrs), over 10000 nM; in assay [5], 5490 nM.

In the case of `CN1CC[C@H](n2c(=O)c(-c3c(F)cccc3F)cc3cnc(Nc4ccc(F)cn4)cc32)C1` [Compound 150, (S)-3-(2,6-difluorophenyl)-7-((5-fluoropyridin-2-yl)amino)-1-(1-methylpyrrolidin-3-yl)-1,6-naphthyridin-2(1H)-one], the EC50 in assay [1] (setting [13]) is 1000 to 10000 nM; in assay [4] (Homo sapiens, Ramos, 48 h) it was over 10000 nM; in assay [5], over 5000 nM. For the same compound, the IC50 in [2] (Lyn IC50) and in [12] was 100 to 1000 nM in each case.

Take `CN1CC[C@@H](n2c(=O)c(-c3c(F)cccc3F)cc3cnc(Nc4ccc(F)cn4)cc32)C1` [Compound 152, (R)-3-(2,6-difluorophenyl)-7-((5-fluoropyridin-2-yl)amino)-1-(1-methylpyrrolidin-3-yl)-1,6-naphthyridin-2(1H)-one]: the EC50 was under 1000 nM in assay [1] (setting [13]); over 10000 nM in [4] (Homo sapiens, Ramos, 48 h); over 5000 nM in [5]. Also, the IC50 in assay [2] (Lyn IC50) and in assay [12] was 100 to 1000 nM each time.

What is called IC50 is the concentration at which inhibition is half-maximal. Usually inhibition stands for the relative decrease from the control value, in per cent.
